≈ marks a conversion by molar mass, not a printed value. Where “and” joins values, the source holds several entries; their conditions need not be identical. Equal entries are not always repeated. Where two headings read alike, the source gives them in different places.
Key:
[1] = test system: N. gonorrhoeae (ATCC 700825); test: Intravaginal infection model, ovariectomized BALB/c mice, strain ATCC 700825; assay type: in vivo, mouse (BALB/c); settings: for killing effect relative to the baseline group: 26, 76 and 170 h after infection; for killing effect (bacterial counts in vaginal lavage): 26 h postinfection
[2] = test system: Neisseria gonorrhoeae strain H041; test: Estradiol-treated mouse model of cervico-vaginal infection, strain H041; assay type: in vivo, mouse (BALB/c); settings: for percentage of mice colonized over 8 culture days after treatment: vs vehicle
E. coli = test system: E. coli; design: method as in PMID 28483959, PMID 31315953; settings: cited from earlier work
N. gonorrhoeae = settings: QC strain ATCC 49926; cited from earlier work
S. aureus = settings: organism not named in the sentence (context MRSA/S. aureus); cited from earlier work
[3] = Liver microsome stability, mouse; assay type: in vitro ADME; settings: male, CD-1, mouse, liver microsomes, pH 7.4
Experimental: Liver microsome stability assays were performed by BioDuro Inc. Human and mouse (CD-1 male) liver microsomes were used. […] Next, 50 μL of reaction buffer was added to solution and mixed via pipetting up and down 6 times. At each time point of 0, 30, and 60 min, an aliquot of 20 μL was removed from each tube. Liver microsomes (LM) working solution was prepared in 0.05 M phosphate reaction buffer (pH = 7.4) to a final concentration of 1.27 mg/mL. NADPH solution was prepared in 0.05 M phosphate buffer to afford a 5 mM buffer solution. […] After vortexing and incubating for 5 min (37°C), 50 μL of NADPH solution was added and mixed via pipetting. At each time point of 0, 5, 15, 30, and 60 min, an aliquot of 20 μL was removed from each tube. Next, 250 μL of quenching solution was aliquoted to quench the reaction, which was then vortexed for 1 min and placed on ice for 40 min. After centrifugation at 4,000 × g for 15 min, 100 μL of supernatant was transferred using a multichannel pipette to 0.65-mL tubes. Samples were diluted with MeOH: H2O (1:1) as necessary. Samples were analyzed by high-pressure liquid chromatography coupled to tandem mass spectrometry (LC/MS/MS) performed on a Sciex Applied Biosystems Qtrap 4000 triple-quadrupole mass spectrometer coupled to a Shimadzu HPLC system to quantify the remaining compound. Data were processed using Analyst software (version 1.4.2; Applied Biosystems Sciex). […] Metabolite identification on the microsomal extracts was performed using a Q-Exactive HRMS coupled with an Ultimate 3000 HPLC system and a Kinetix C18 2.1 × 50-mm 2.6-μm HPLC column.

[4] = Kinetic aqueous solubility; assay type: physicochemical
C. difficile BAA-1805 = test: Hamster C. difficile colitis model; assay type: in vivo, Golden Syrian hamster
[5] = Mouse pharmacokinetics of JSF-2659; assay type: in vivo; settings: oral administration in mice; data not shown
S. aureus VRSA, VRS-2 = test: Neutropenic murine thigh infection model; assay type: in vivo, mouse (ICR); settings: 26 h after infection
VRSA [6] = test: MIC, in vitro susceptibility testing (CLSI); assay type: cell-based, Staphylococcus aureus; settings: Staphylococcus aureus, VRSA
VISA = test: MIC, in vitro susceptibility testing (CLSI); assay type: cell-based, Staphylococcus aureus; settings: for MIC: Staphylococcus aureus, VISA
C. difficile = test: MIC, toxigenic C. difficile panel (CLSI); assay type: cell-based, Clostridioides difficile; settings: for MIC: Clostridioides difficile
MRSA = test: MIC, in vitro susceptibility testing (CLSI); assay type: cell-based, Staphylococcus aureus
VRSA [7] = settings: cited from earlier work
MRSE = test: MIC, in vitro susceptibility testing (CLSI); assay type: cell-based, Staphylococcus epidermidis

CNC(C)C1CCC(N)C(OC2C(N)CC(N)C(OC3OCC(C)(O)C(NC)C3O)C2O)O1 (stereo not shown) [GEN, gentamicin]
reduction in the bacterial counts ([1]; 26 h, IP 48 mg/kg QD, relative to vehicle or baseline): No significant reduction in the bacterial counts | average CFU per mL of vaginal swab suspension over time ([2]; 48 mg/kg, 5 QD, IP, P = 0.007): significantly different than the vehicle control group

O=c1ccc2ncc(=O)n3c2n1C[C@H]3CN1CCC(NCc2cc3c(cn2)OCCC3)CC1 [Gepotidacin]
MIC (E. coli): 4 µg/mL (≈ 8.92 µM) | modal MIC (N. gonorrhoeae): 0.5 µg/mL | MIC90 (S. aureus): 0.5 µg/mL (≈ 1.11 µM)

CNc1cc(F)cc2c1[nH]c1nc(Oc3cnc(C)nc3)nc(N3CCC4(CC3)CO[C@@H](COP(=O)(O)O)C4)c12 [JSF-2659]
killing effect relative to the baseline group ([1]; IM 75 mg/kg QD): > 3 log10 | killing effect relative to the baseline group ([1]; IM 250 mg/kg QD): > 3 log10 | killing effect relative to the baseline group ([1]; PO 75 mg/kg TID): > 3 log10 | killing effect relative to the baseline group ([1]; PO 250 mg/kg QD): > 3 log10 | killing effect relative to the baseline group ([1]; PO 250 mg/kg TID): > 3 log10 | killing effect (bacterial counts in vaginal lavage) ([1]; IM 75 mg/kg QD, relative to control): 3.51 log10 | killing effect (bacterial counts in vaginal lavage) ([1]; IM 250 mg/kg QD, relative to control): 3.39 log10 | killing effect (bacterial counts in vaginal lavage) ([1]; PO 75 mg/kg QD, relative to baseline group): 1 log10 | killing effect (bacterial counts in vaginal lavage) ([1]; PO 75 mg/kg TID, relative to control): 3.51 log10 | killing effect (bacterial counts in vaginal lavage) ([1]; PO 250 mg/kg QD, relative to control): 3.51 log10 | killing effect (bacterial counts in vaginal lavage) ([1]; PO 250 mg/kg TID, relative to control): 3.51 log10 | reduction of burden to the limit of detection ([1]; dose-dependent oral administration): ~ 4.5 log10 | microsomal CLint at 1 μM ([3]; read-out: MLM Clint): 0.5 µL/min/mg | half-life at 1 μM ([3]; read-out: MLM t1/2): 23.1 h | percentage of mice colonized over 8 culture days after treatment ([2]; 75 mg/kg TID (q 6 h) PO): significant reduction in the percentage of mice colonized | percentage of mice colonized over 8 culture days after treatment ([2]; 250 mg/kg QD PO): significant reduction in the percentage of mice colonized | percentage of mice colonized over 8 culture days after treatment ([2]; 250 mg/kg TID (q 6 h) PO): significant reduction in the percentage of mice colonized | average CFU/mL recovered after 48 h of treatment ([2]; 250 mg/kg TID PO, vs vehicle (P = 0.058)): significantly reduced compared to the vehicle control | average CFU per mL of vaginal swab suspension over time ([2]; 250 mg/kg TID PO, P = 0.004): significantly different than the vehicle control group | increase of solubility over the parent drug candidate ([4]; JSF-2659 vs JSF-2414): 764 fold | solubility kinetic ([4]; aqueous medium (not further specified)): 440 µM (≈ 252 µg/mL) | survival, 14-day observation (C. difficile BAA-1805; 20 mg/kg PO BID for 5 days): 100% | survival, 14-day observation (C. difficile BAA-1805; 100 mg/kg PO BID for 5 days): 100% | survival, 14-day observation (C. difficile BAA-1805; 250 mg/kg PO BID for 5 days): 100% | body weight change during the 14-day observation period (C. difficile BAA-1805; 20, 100 and 250 mg/kg PO BID, relative to the positive controls): No significant loss of body weight | conversion by host phosphatases to JSF-2414 [5]: > 99% | bacterial count reduction in thigh relative to vehicle control (S. aureus VRSA, VRS-2; PO 100 mg/kg QD): 0.95 log10 | bacterial count reduction in thigh relative to vehicle control (S. aureus VRSA, VRS-2; PO 100 mg/kg TID): 4.84 log10 | bacterial count reduction in thigh relative to vehicle control (S. aureus VRSA, VRS-2; PO 250 mg/kg QD): 4.42 log10 | bacterial count reduction in thigh relative to vehicle control (S. aureus VRSA, VRS-2; PO 250 mg/kg TID, 250 mg/kg): 6.26 log10 and > 6.2 log10

CO[C@H]1/C=C/O[C@@]2(C)Oc3c(C)c(O)c4c(O)c(c(/C=N/N5CCN(C)CC5)c(O)c4c3C2=O)NC(=O)/C(C)=C\C=C\[C@H](C)[C@H](O)[C@@H](C)[C@@H](O)[C@@H](C)[C@H](OC(C)=O)[C@@H]1C [Rif, rifampicin]
MIC (VRSA [6]; strain 2 25 23): < 0.078 µg/mL | MIC (VRSA [6]; strain 2 25 24): < 0.078 µg/mL | MIC (VRSA [6]; strain 2 25 25): < 0.078 µg/mL | MIC (VRSA [6]; strain 2 25 26): < 0.078 µg/mL | MIC (VRSA [6]; strain 2 25 27): < 0.078 µg/mL | MIC (VRSA [6]; strain 2 25 28): < 0.078 µg/mL | MIC (VRSA [6]; strain VRS2 (VRS-2)): > 10 µg/mL | MIC (VISA; strain 2 11 43): < 0.078 µg/mL | MIC (VISA; strain 2 11 56): > 10 µg/mL | MIC (VISA; strain 2 11 57): < 0.078 µg/mL | MIC (VISA; strain 2 11 61): < 0.078 µg/mL | MIC (VISA; strain 2 11 71): > 10 µg/mL | MIC (VISA; strain 2 11 78): < 0.078 µg/mL | MIC (VISA; strain 2 11 86): > 10 µg/mL | MIC (VISA; strain 2 13 52): > 10 µg/mL

CN[C@H](CC(C)C)C(=O)N[C@H]1C(=O)N[C@@H](CC(N)=O)C(=O)N[C@H]2C(=O)N[C@H]3C(=O)N[C@H](C(=O)N[C@H](C(=O)O)c4cc(O)cc(O)c4-c4cc3ccc4O)[C@H](O)c3ccc(c(Cl)c3)Oc3cc2cc(c3O[C@@H]2O[C@H](CO)[C@@H](O)[C@H](O)[C@H]2O[C@H]2C[C@](C)(N)[C@H](O)[C@H](C)O2)Oc2ccc(cc2Cl)[C@H]1O [Van, vancomycin]
MIC range (C. difficile): 0.5 to 1 µg/mL | MIC (C. difficile): 1 µg/mL (≈ 0.69 µM) | MIC (C. difficile; BAA1805): 0.5 µg/mL (≈ 0.345 µM) | MIC (C. difficile; BAA1808): 0.5 µg/mL (≈ 0.345 µM) | MIC (C. difficile; BAA1874): 0.5 µg/mL (≈ 0.345 µM) | MIC (C. difficile; BAA1875): 0.5 µg/mL (≈ 0.345 µM) | MIC (MRSA): 1.0 µg/mL (≈ 0.69 µM) | MIC range (MRSA): 0.5 to 1 µg/mL | MIC (MRSA; Staphylococcus aureus, MRSA): 0.5 µg/mL (≈ 0.345 µM) | MIC (VRSA [7]): > 64 µg/mL | survival (C. difficile BAA-1805; 20 mg/kg PO BID for 5 days): 100% | MIC range (MRSE): 0.5 to 1 µg/mL | MIC (MRSE; Staphylococcus epidermidis, MRSE): 0.5 µg/mL (≈ 0.345 µM) | MIC range (VISA): 3.125 to 12.5 µg/mL | bacterial count reduction in thigh (S. aureus VRSA, VRS-2; SC 100 mg/kg TID): 2.09 log10

CC(=O)NC[C@H]1CN(c2ccc(N3CCOCC3)c(F)c2)C(=O)O1 [linezolid]
bacterial count reduction in thigh (S. aureus VRSA, VRS-2; PO 50 mg/kg BID): 3.41 log10

C[C@@H]1CN2c3c(cc4c(N5C(=O)OC[C@@H]5C)noc4c3F)CC3(C(=O)NC(=O)NC3=O)[C@H]2[C@H](C)O1 [zoliflodacin]
MIC (E. coli): 4 µg/mL (≈ 8.21 µM)
